Values after ≈ are worked out from the molar mass of the structure shown.
Tested on: MCF-7 (Human breast cancer)
Assay: MTT test on MCF-7 cells
Type: cell-based
Settings: MCF7, till 48 h
Procedure: The in vitro anticancer activities of the synthesized compounds were conducted using different cancerous and non-cancerous cell lines viz B16-F0 (Mouse melanoma), mouse Ehrlich Ascites Carcinoma (EAC), MCF-7 (Human breast cancer), MCF-10A (Human breast epithelial cells), and NIH/3T3 (Mouse fibroblast cells). All cell lines were procured from the National Centre for Cell Science, Pune, India. The procured cells were cultured in a six-well culture plate with Dulbecco’s Modified Eagle’s Medium (DMEM) supplemented with 10% fetal bovine serum in a humid CO2 incubator with 5% carbon dioxide at 37 °C.
The anti-cancer effect and cytotoxicity of both 3-MBTSc and 4-NBTSc compounds were evaluated against different cancerous (MCF-7, EAC, B16-F0 cells) and noncancerous cells (MCF-10A, NIH-3T3 cells) using MTT test. In brief, the stock solutions of both the tested compounds were prepared by dissolving 1 mg of each compound in 1 mL of DMSO separately. Then, four different concentrations (5, 10, 12, and 20 µg/mL) of both compounds were used during the test along with the negative control. Also, 10 μg/mL of doxorubicin (Dox) was used as the positive control during the experiment. Both untreated and treated cells were incubated for next 24 and 48 h. Then, all the steps during the whole experiment were carried out by our earlier reported procedure. Later, the absorbance values were measured by an ELISA reader (Biorad, Hercules, CA, USA) at 570 nm wavelength using secondary wavelength as a reference at 620 nm and the percentages of cell viability was calculated using the following formula [59, 60, 61]. Cell viability (%)= Mean absorbance of treated cells/Mean absorbance of untreated cells × 100
Based on the cell viability data, the IC50 values of both compounds were calculated on different cancer cells by plotting their corresponding dose-responsive graphs.
The obtained data were statistically analyzed. The descriptive analysis was done and the IC50 values were calculated by fitting the sigmoidal dose responsive graph using GraphPad Prism (GraphPad Software, Inc., La Jolla, CA, USA). […]

IC50: 3.162 ± 0.018 µg/mL (≈ 5.82 µM)
SMILES: COc1cccc2c1C(=O)c1c(O)c3c(c(O)c1C2=O)C[C@@](O)(C(=O)CO)C[C@@H]3O[C@H]1C[C@H](N)[C@H](O)[C@H](C)O1 [DOX, doxorubicin, reference compound]

Source: article PMC8533299, “Synthesis, In Silico Study, and Anti-Cancer Activity of Thiosemicarbazone Derivatives” (Biomedicines, 2021)
